Results from patent US20140023647A1, “METHOD FOR TREATING SOLID TUMORS” (BELLICUM PHARMACEUTICALS, INC., priority 2010, published 2014).
Like-named read-outs stand apart in the source and are kept apart here.

Tests used:
NFkappaB = NFkappaB reporter assay, iCD40 constructs in Jurkat T cells with titrated AP20187; format: cell-based, human
Procedure: Reporters assays were conducted in human Jurkat-TAg (T cells) or 293 (kidney embryonic epithelial) cells or murine RAW264.7 (macrophage) cells. Jurkat-TAg cells (107) in log-phase growth were electroporated ([…], 250 V) with […] expression plasmid and […] of reporter plasmid NF-kB-SEAP or IFNb-TA-SEAP (see above). 293 or RAW264.7 cells (˜2×10^5 cells per 35-mm dish) in log phase were transfected with […] of FuGENE-6 in growth media. After 24 hr, transformed cells were stimulated with CID. After an additional 20 h, supernatants were assayed for SEAP activity as discussed previously (Spencer, D. M., et al., Science 262, 1019-1024 (1993)).
An inducible CD40 receptor based on chemical-induced dimerization (CID) and patterned after endogenous CD40 activation was produced to specifically target DCs (FIG. 1A). The recombinant CD40 receptor, termed iCD40, was engineered by rt-PCR amplifying the 228 bp CD40 cytoplasmic signaling domain from purified murine bone marrow-derived DCs (>95% CD11c+) and sub-cloning the resulting DNA fragment either downstream (i.e., M-FvFvlsCD40-E) or upstream (M-CD40-FvFvls-E) of tandem copies of the dimerizing drug binding domain, FKBP12(V36) (FIG. 1B). […]

[1] = cited from earlier work
FKBP12(V36) = biological target: T1, FKBP12(V36) (Homo sapiens, UniProt P62942, F37V); experiment: AP1903 needed in vitro for effective signaling of cells; format: cell-based
T1 construct: expressed in transfected cells; host or cells: cells transduced with Ad5f35-ihCD40 (human monocyte-derived dendritic cells); inferred, the sentence names no cells
T1 sequence (P62942 2-108 F37V): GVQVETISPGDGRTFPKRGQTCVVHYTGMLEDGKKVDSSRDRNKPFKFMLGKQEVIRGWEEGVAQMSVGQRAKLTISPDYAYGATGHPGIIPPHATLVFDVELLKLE
Procedure: The fixed dose of AP1903 for Injection used in this study is 0.4 mg/kg intravenously infused over 2 hours. The amount of AP1903 needed in vitro for effective signaling of cells is 10-100 nM (1600 Da MW). This equates to 16-160 μg/L or ˜0.016-1.6 mg/kg (1.6-160 μg/kg). Doses up to 1 mg/kg were well-tolerated in the Phase I study of AP1903 described above. Therefore, 0.4 mg/kg may be a safe and effective dose of AP1903 for this Phase I study in combination with BPX-101.

IL-6 = biological target: T2, IL-6 (Homo sapiens, UniProt P05231); conditions: cited from earlier work
T2 construct: host or cells: patients' endogenous IL-6
T2 sequence (P05231 30-212): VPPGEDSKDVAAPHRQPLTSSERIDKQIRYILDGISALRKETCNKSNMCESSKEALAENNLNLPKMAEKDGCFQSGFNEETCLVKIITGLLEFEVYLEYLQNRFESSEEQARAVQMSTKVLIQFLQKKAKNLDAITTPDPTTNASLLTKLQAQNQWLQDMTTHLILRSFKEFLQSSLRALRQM

[2] = patients with advanced cancer, Clarke et al.

With `CC[C@H](C(=O)N1CCCC[C@H]1C(=O)O[C@H](CCc1ccc(OC)c(OC)c1)c1cccc(OCC(=O)NCC(CNC(=O)COc2cccc([C@@H](CCc3ccc(OC)c(OC)c3)OC(=O)[C@@H]3CCCCN3C(=O)[C@@H](CC)c3cc(OC)c(OC)c(OC)c3)c2)CN(C)C)c1)c1cc(OC)c(OC)c(OC)c1` [AP20187] the “high drug dose suppression” value (NFkappaB; iCD40-transfected Jurkat T cells) was “over 100 nM” and the “NF B transcriptional activity” value (NFkappaB; increasing AP20187, iCD40 constructs vs control vector M-FvFvls-E) was “significant upregulation”.

In the case of `CC[C@H](C(=O)N1CCCC[C@H]1C(=O)O[C@H](CCc1ccc(OC)c(OC)c1)c1cccc(OCC(=O)NCCNC(=O)COc2cccc([C@@H](CCc3ccc(OC)c(OC)c3)OC(=O)[C@@H]3CCCCN3C(=O)[C@@H](CC)c3cc(OC)c(OC)c(OC)c3)c2)c1)c1cc(OC)c(OC)c(OC)c1` (relative stereo) [AP1903, 2-Piperidinecarboxylic acid, 1-[(2S)-1-oxo-2-(3,4,5-trimethoxyphenyl)butyl]-, 1,2-ethanediylbis[imino(2-oxo-2,1-ethanediyl)oxy-3,1-phenylene[(1R)-3-(3,4-dimethoxyphenyl)propylidene]]ester, [2S-[1(R*),2R*[S*[S*[1(R*),2R*]]]]]-(9Cl)], the “mean Cmax” value ([1]; 0.01-1.0 mg/kg dose range, IV over 2 hours, plasma) is listed as 10 to 1275 ng/mL, the “AP1903 plasma levels versus dose” value ([1]; 0.01-1.0 mg/kg) is listed as “directly proportional to dose” and the “plasma level as % of maximal concentration” value (shortened to “plasma level as %”) ([1]; 0.5 hours post-dose) is listed as “approximately 18%”. The “plasma level as %” value ([1]; 2 hours post-dose) was about 7%, the “plasma level as %” value ([1]; 10 hours post-dose) was about 1% and the well-tolerated doses ([1]; Phase I study of AP1903) was “up to 1 mg/kg”. The “amount needed for effective signaling, converted to dose” value (FKBP12(V36)) was 0.016 to 1.6 mg/kg, the “amount needed in vitro for effective signaling of cells” value (FKBP12(V36)) was 10 to 100 nM and the “amount needed for effective signaling, converted” value (FKBP12(V36); 1600 Da MW) was 16 to 160 µg/L.

B1: ALD-518: humanized anti-IL-6 monoclonal antibody (antibody, chains of the INN, looked up, V domains shown)
VH: EVQLVESGGGLVQPGGSLRLSCAASGFSLSNYYVTWVRQAPGKGLEWVGIIYGSDETAYATSAIGRFTISRDNSKNTLYLQMNSLRAEDTAVYYCARDDSSDWDAKFNLWGQGTLVTVSS
VL: AIQMTQSPSSLSASVGDRVTITCQASQSINNELSWYQQKPGKAPKLLIYRASTLASGVPSRFSGSGSGTDFTLTISSLQPDDFATYYCQQGYSLRNIDNAFGGGTKVEIK
For B1, the “hematologic parameters and albumin” value (IL-6; larger study, cancer-related anemia, cachexia and fatigue, Schuster et al.) is given as “increase hemoglobin, hematocrit, mean corpuscular hemoglobin, and albumin”, the C-reactive protein levels (IL-6; [2]) is given as “decrease in C-reactive protein levels” and the “fatigue, hemoglobin and albumin” value (IL-6; [2]) is given as “reverse fatigue, increase hemoglobin and increase albumin”. The hand grip strength (IL-6; [2]) was “trend to increased hand grip strength”.
